This data set concerns the target IRF4. Particulars: ASO.

Values joined by “and” are separate entries in the source; they are usually repeats but may differ in a detail not shown here. Equal entries are not always repeated. After the bases stand the sugars from the 5' end (letter, count) and the backbone: PS all phosphorothioate, else s phosphorothioate and o phosphodiester by linkage. Methylation of C is not given here. e = 2'-O-(2-methoxyethyl) (MOE); k = constrained ethyl (cEt); d = 2'-deoxy (DNA)

In the case of TTGTTCCACCCCTGGG (sugars k3 d10 k3, PS), the target mRNA inhibition (SK-MEL-28, 4 µM) came to 47%. For GGATTCCGCGCGCAGA (sugars k3 d10 k3, PS), under “MM.1R, 1 µM”, the target mRNA inhibition worked out at 21%. Same read-out and setting: in the case of ACCTAACTAAATGTCA (sugars k3 d10 k3, PS) it was -24%; in that of GAACCACAAGCAGTGA (sugars k3 d10 k3, PS), -32%. As to CAGTGGAGCTCCACAG (sugars k3 d10 k3, PS), the target mRNA inhibition (SK-MEL-28, 4 µM) was 41%. On the same count and under the same terms, the figure for AGGCTCGGGCAGAGCC (sugars k3 d10 k3, PS) is 1%. For “AGCATTTTATCATCCG (sugars k3 d9 k3 e1, PS)”, the target mRNA inhibition by setting is: (MM.1R, 0.074 µM) 17%; (MM.1R, 0.222 µM) 32%; (MM.1R, 0.666 µM) 61%; (MM.1R, 1 µM) 66%; (MM.1R, 2 µM) 83%.

For GACTTATTTGTGGCTC (sugars k3 d10 k3, PS), the target mRNA inhibition (MM.1R, 1 µM) is 20%.

In the case of GCACTGGCATCGAGAC (sugars k3 d10 k3, PS), under “SK-MEL-28, 4 µM”, the target mRNA inhibition was 57%. Same read-out and setting: in the case of TCACGCAGTGCACCTG (sugars k3 d10 k3, PS) it was 46%. Turning to TACCTCAGTTTGTGAA (sugars k3 d10 k3, PS), under “MM.1R, 1 µM”, the target mRNA inhibition turned out to be 11%. Turning to GCTCATGGACATCTGC (sugars k3 d10 k3, PS), the target mRNA inhibition (SK-MEL-28, 4 µM) came to 39%. On the same count and under the same terms, in the case of GCGAAGGCTCCTACCC (sugars k3 d10 k3, PS) it was -15%.

For the sequence CTGCATCGAGATCAGT (sugars k3 d10 k3, PS), the target mRNA inhibition (SK-MEL-28, 4 µM) came out at 52%. Take CAGAGCCAACTTATAG (sugars k3 d10 k3, PS): the target mRNA inhibition (MM.1R, 1 µM) is 30% and 43%. Consider TTGCAAGCTATATTAA (sugars k3 d10 k3, PS), for which the target mRNA inhibition (SK-MEL-28, 4 µM) was found to be 34%. In the case of CACGGACGGAGGCGGC (sugars k3 d10 k3, PS), the target mRNA inhibition (SK-MEL-28, 4 µM) was 18%. Consider ACGAAGGGCAGTGCCT (sugars k3 d10 k3, PS), for which, under “MM.1R, 1 µM”, the target mRNA inhibition is -5%. For CAACCATTTTCACAAG (sugars k4 d8 k4, PS), the target mRNA inhibition (SK-MEL-28, 4 µM) was found to be 5%. On the same count and under the same terms, in the case of CTACAAGGTCTGAGTT (sugars k3 d10 k3, PS) it was 17%; in that of GGAGTAATAGTAAATA (sugars k3 d10 k3, PS), 36%; in that of CCCACGGACGGAGGCG (sugars k3 d10 k3, PS), -9%.

AAGCATTTTATCATCC (sugars k3 d10 k3, PS): the target mRNA inhibition (MM.1R, 1 µM) is 25%.

Consider TCTGGATGAGCTTACA (sugars k3 d10 k3, PS), for which the target mRNA inhibition (MM.1R, 1 µM) is 14%.

As for “AGCATTTTATCATCCG (sugars e1 k2 d9 k2 e2, PS)”, the target mRNA inhibition (MM.1R, 1 µM) is 43%. With CAGAAACCCTCATCAC (sugars k3 d10 k3, PS), the target mRNA inhibition (SK-MEL-28, 4 µM) is 4%. Turning to TCTGACAAGAACTGCT (sugars k3 d10 k3, PS), under “SK-MEL-28, 4 µM”, the target mRNA inhibition was determined as 12%. On to AAGTTCTAGTCGCGCA (sugars k3 d10 k3, PS), for which, where the note is “MM.1R, 1 µM”, the target mRNA inhibition was 11%. In the case of GCTGTGTGTCAAAGAG (sugars k4 d8 k4, PS), the target mRNA inhibition (SK-MEL-28, 4 µM) is 40%.

Regarding TTTGTACGGGTCTGAG (sugars k3 d10 k3, PS), under “SK-MEL-28, 4 µM”, the target mRNA inhibition was 20%. Same read-out and setting: the figure for ACACAGTCTGCTGCCC (sugars k3 d10 k3, PS) is 51%. Regarding TCCAAAGGGTTCAGTG (sugars k3 d10 k3, PS), the target mRNA inhibition (MM.1R, 1 µM) turned out to be 7%.

For the sequence GAATCTTGGCAGGGAG (sugars k3 d10 k3, PS), the target mRNA inhibition (MM.1R, 1 µM) stood at 0%. For TCTTTGGGATTCTATA (sugars k3 d10 k3, PS), where the note is “SK-MEL-28, 4 µM”, the target mRNA inhibition was determined as 60%. Turning to GTAGTCCTGCTTGCCC (sugars k4 d8 k4, PS), the target mRNA inhibition (SK-MEL-28, 4 µM) is 11%. On to GTGATAGCTGAGCTGA (sugars k3 d10 k3, PS), for which the target mRNA inhibition is 51% and 42% (H929, 0.04 µM); 77% and 89% (KMS11, 0.2 µM); 13% and 17% (MM.1R, 0.0625 µM); 38% and 47% (MM.1R, 0.25 µM); 70% and 75% (MM.1R, 1 µM); 89% and 88% (MM.1R, 4 µM). For TCTACAGAACACAAGA (sugars k3 d10 k3, PS), the target mRNA inhibition (SK-MEL-28, 4 µM) is -8%. Turning to “GGGATTATATACTGGT (sugars kkdddddddddkekek, PS)”, under “MM.1R, 1 µM”, the target mRNA inhibition came out at 40%. Turning to GAGAAAACCCCCCTCT (sugars k3 d10 k3, PS), the target mRNA inhibition (SK-MEL-28, 4 µM) came to 17%. As to “TTGGTTGGCTGGTCTT (sugars kkdddddddddkekek, PS)”, the target mRNA inhibition (MM.1R, 1 µM) came out at 65%. Same read-out and setting: the figure for GGCTCCGCTCAACCAG (sugars k3 d10 k3, PS) is 9%. Regarding GACTAACAGGGAGACT (sugars k3 d10 k3, PS), the target mRNA inhibition (SK-MEL-28, 4 µM) is -9%. Still for that read-out and setting: in the case of TACCCTGGATCACTCA (sugars k3 d10 k3, PS) it was 65%. Turning to CATTAGCAATTAGCTC (sugars k3 d10 k3, PS), the target mRNA inhibition (MM.1R, 1 µM) is -37%. For GGGTTAAAGGAGTGCA (sugars k3 d10 k3, PS), the target mRNA inhibition (MM.1R, 1 µM) was determined as 0%. For the sequence TAAAGATGCCAGAGGG (sugars k3 d10 k3, PS), the target mRNA inhibition (SK-MEL-28, 4 µM) stood at 39%. Same read-out and setting: in the case of TTAGAGAGGAGAATTT (sugars k3 d10 k3, PS) it was 35%. Turning to AATGGATAGTTTCTCA (sugars k3 d10 k3, PS), the target mRNA inhibition was -2% and -14% (MM.1R, 0.0625 µM); 11% (MM.1R, 0.074 µM); 8% (MM.1R, 0.222 µM); 6% and 5% (MM.1R, 0.25 µM); 23% (MM.1R, 0.666 µM); 21% and 36% (MM.1R, 1 µM). Moreover, the target mRNA inhibition runs as follows: (MM.1R, 2 µM) 45%; (MM.1R, 4 µM) 45% and 50%; (SK-MEL-28, 4 µM) 63%. For the sequence TGTGATAGCTGAGCTG (sugars k3 d10 k3, PS), the target mRNA inhibition (MM.1R, 1 µM) came to 47%. For CAGCATCTAAGGCAAG (sugars k3 d10 k3, PS), the target mRNA inhibition (SK-MEL-28, 4 µM) turned out to be 54%. As for AGTCAATCACTGGAGA (sugars k3 d10 k3, PS), the target mRNA inhibition was 1% and -8% (MM.1R, 0.0625 µM); 0% (MM.1R, 0.074 µM); -15% (MM.1R, 0.222 µM); 4% and 5% (MM.1R, 0.25 µM); -7% (MM.1R, 0.666 µM); 16% and 22% (MM.1R, 1 µM). For the same sequence, the target mRNA inhibition was 9% (MM.1R, 2 µM); 40% and 45% (MM.1R, 4 µM); 60% (SK-MEL-28, 4 µM). On to ACAGATAACGAGGTGC (sugars k3 d10 k3, PS), for which the target mRNA inhibition (SK-MEL-28, 4 µM) is 30%. For the sequence AGCCTTCCTGCTCAGA (sugars k3 d10 k3, PS), for the setting “SK-MEL-28, 4 µM”, the target mRNA inhibition was 55%. For the sequence “CAGTTGTAAATGAGTC (sugars kkkdddddddddkeke, PS)”, the target mRNA inhibition runs as follows: (MM.1R, 0.074 µM) 21%; (MM.1R, 0.222 µM) 28%; (MM.1R, 0.666 µM) 57%; (MM.1R, 1 µM) 58%; (MM.1R, 2 µM) 80%. Take GGCAACCTGCATTTGC (sugars k4 d8 k4, PS): the target mRNA inhibition (SK-MEL-28, 4 µM) is -12%. Still for that read-out and setting: in the case of TCTAATCCACAATCAG (sugars k3 d10 k3, PS) it was 41%; in that of AACTATCTTATTCCTC (sugars k3 d10 k3, PS), 30%; in that of GGGCAAGATGAGAATT (sugars k3 d10 k3, PS), 0%. As for GGCCTGAGTTACCGCA (sugars k3 d10 k3, PS), the target mRNA inhibition (MM.1R, 1 µM) is 8%. The same measure, in the same setting: the figure for TACAGGACAGGTAAAG (sugars k3 d10 k3, PS) is -29%; for CTGCCACTGGTAACTG (sugars k3 d10 k3, PS) it is 21%. For the sequence TAGTAGGTAAGATCTC (sugars k3 d10 k3, PS), the target mRNA inhibition (SK-MEL-28, 4 µM) was determined as 23%. GTGTGCTTGCCAAGCC (sugars k3 d10 k3, PS): the target mRNA inhibition runs as follows: (MM.1R, 0.0625 µM) 35%; (MM.1R, 0.25 µM) 23%; (MM.1R, 1 µM) 66% and 63%; (MM.1R, 4 µM) 87%. Turning to CCACAACTCTCGCCTC (sugars k3 d10 k3, PS), the target mRNA inhibition (MM.1R, 1 µM) was -9%. With GTCTCAGTTTGAAGCA (sugars k3 d10 k3, PS), the target mRNA inhibition (SK-MEL-28, 4 µM) is 69% and 74%. Turning to “TGTAGTATGAGAAACG (sugars k3 d9 k3 e1, PS)”, the target mRNA inhibition (MM.1R, 1 µM) came out at 33%. Same read-out and setting: the figure for “AAGCATTTTATCATCC (sugars kkdddddddddkekek, PS)” is 18%. GTAACTAACTCAAAAG (sugars k3 d10 k3, PS): the target mRNA inhibition (SK-MEL-28, 4 µM) is -1%. Turning to “AGTTGTAAATGAGTCG (sugars k2 d9 e3 k2, PS)”, the target mRNA inhibition is 57% and 42% (H929, 0.04 µM); 86% and 92% (KMS11, 0.2 µM); 10% (MM.1R, 0.074 µM); 25% (MM.1R, 0.222 µM); 55% (MM.1R, 0.666 µM); 66% (MM.1R, 1 µM). Besides, the target mRNA inhibition (MM.1R, 2 µM) worked out at 77%.

In the case of TCCTCTGGCCATTGTC (sugars k3 d10 k3, PS), the target mRNA inhibition (SK-MEL-28, 4 µM) is 41%. The same measure, in the same setting: in the case of CTTATTTGTGGCTCAA (sugars k3 d10 k3, PS) it was 55%. On to TTTACCTGGTATTGCT (sugars k3 d10 k3, PS), for which, under “SK-MEL-28, 4 µM”, the target mRNA inhibition came to 38%.

Regarding GTTAATAATGCTTGCA (sugars k3 d10 k3, PS), for the setting “SK-MEL-28, 4 µM”, the target mRNA inhibition worked out at 2%.

As for GTAAACGCAAGTCTGA (sugars k3 d10 k3, PS), the target mRNA inhibition (MM.1R, 1 µM) amounted to 14%.

In the case of AACGAGGTAAATCTTC (sugars k3 d10 k3, PS), for the setting “SK-MEL-28, 4 µM”, the target mRNA inhibition worked out at 51%. AACTCTGAGTAGACTT (sugars k3 d10 k3, PS): where the note is “SK-MEL-28, 4 µM”, the target mRNA inhibition was 28%. The same measure, in the same setting: in the case of GGAGATCCTTTTTATT (sugars k3 d10 k3, PS) it was 32%. In the case of CCCGGCCGATCATCAA (sugars k3 d10 k3, PS), the target mRNA inhibition (MM.1R, 1 µM) worked out at 23%. With TTCAGTGCTCACTGCT (sugars k3 d10 k3, PS), the target mRNA inhibition (SK-MEL-28, 4 µM) was 69%.
